Measurements reported in US20040121968A1, “Antiangiogenesis by inhibiting protein kinase CK2 activity” (priority 2002, published 2004).
Starred links: 1 amine or outer side, 2 acyl side, 3 side chain; linkers in the order of their positions; H or OH if unused. Positions of bridges follow the written chain, without caps; N, C: chain ends. Non-standard residues stand in square brackets, D forms with d. Residues, ends and D or L forms follow the SMILES beside them. Chains are numbered I, II in the order given. Actinocin(9to1) = Cc1c2oc3c(C)ccc(C(=O)[*:1])c3nc-2c(C(=O)[*:2])c(N)c1=O; NMeV = CN[C@H](C(=O)O)C(C)C; Sar = CNCC(=O)O

Tested on: retinal endothelial cells (REC)
Experiment: REC angiogenic assays taken together (proliferation, secondary sprouting, migration, tube formation)
Assay type: cell-based, bovine
Details: all assays
Description: Human REC (from normal, diabetic and patients with DR [“DR REC”]) and bovine REC were cultured in monolayer (for migration assay) or on top of Matrigel™ where cells form capillary-like tubes. They were treated with angiogenic growth factors or their combinations (at 10 ng/ml of each factor), and seeded with or without TN-C at 10-50 μg/mL. Cell numbers were determined by MTS assay (Promega Corp., Madison, Wis.). Tube length and number, and cell migration were assessed microscopically.
Treatment of REC cultures. Duplicate REC cultures on plastic (for migration) or Matrigel™ with the same number of cells per dish are treated with previously established working concentrations of signaling inhibitors and/or select growth factor combinations. Treatments begin at the time of seeding the cells and medium is changed every other day. Single growth factors are used as negative controls since their modulation of TN-C effects was minimal. Working growth factor concentrations were as follows: VEGF, 1-50 ng/mL depending on the assay; PlGF, 100 ng/mL; FGF-2, 10-100 ng/mL; IGF-I, 25-100 ng/mL; PDGF-BB, 10-100 ng/mL. When used as combinations, each growth factor was supplied at 10 ng/mL for optimum synergy. […]

In the case of `Cc1c2oc3c(C)ccc(C(=O)N[C@@H]4C(=O)N[C@H](C(C)C)C(=O)N5CCC[C@H]5C(=O)N(C)CC(=O)N(C)[C@@H](C(C)C)C(=O)O[C@@H]4C)c3nc-2c(C(=O)N[C@@H]2C(=O)N[C@H](C(C)C)C(=O)N3CCC[C@H]3C(=O)N(C)CC(=O)N(C)[C@@H](C(C)C)C(=O)O[C@@H]2C)c(N)c1=O` [Actinomycin D] (I: T[dV]P[Sar][NMeV] / II: T[dV]P[Sar][NMeV]; ester I:1-I:C, II:1-II:C; linker I:N-II:N via Actinocin(9to1)), the “effect of inhibitor in the angiogenic assays” value is reported as “only minor changes”.
